Among the test systems are KM12; HOP-62; ACHN; MOLT-4; MDA-MB-231; RXF 393; K562; SK-MEL-2; HT-29; MCF7; UACC-257; U-251; RPMI-8226; NCI-H522; SK-MEL-28; CAKI-1; A549; MDA-N.
Common to all, as to test: DTP human tumour cell line panel, 48 h

SMILES strings stand for the structures.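 A five-concentration, 48-hour dose response in 96-well plates underlies each endpoint, interpolated linearly between surrounding concentrations. The concentration for 50% growth inhibition is given as GI50.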 The source made the active and inactive calls. Cut-off read from the data, not from the text of the source: active = GI50 up to about 1.1 µM and inactive = higher.

`CSc1nc(O)c(C#N)c(-c2ccc(Cl)cc2)n1`: the GI50 is > 100 µM (inactive) in the assay with KM12; > 100 µM (inactive) with HOP-62; > 100 µM (inactive) with ACHN; > 100 µM (inactive) in the assay with MOLT-4; > 100 µM (inactive) in the assay with MDA-MB-231; 66.7 µM (inactive) in the assay on RXF 393. In addition, the GI50 with K562 was > 100 µM (inactive); in the assay with SK-MEL-2 it was > 100 µM (inactive); in the assay with HT-29, > 100 µM (inactive); in the assay with MCF7, > 100 µM (inactive); in the assay on UACC-257, > 100 µM (inactive); in the assay on U-251, 97.9 µM (inactive). The GI50 was 80.4 µM (inactive) in the assay with RPMI-8226; 51.8 µM (inactive) with NCI-H522; > 100 µM (inactive) with SK-MEL-28; > 100 µM (inactive) in the assay with CAKI-1; > 100 µM (inactive) in the assay with A549.
In the case of `Cc1cc(C(O)CNC(C)CCn2cnc3c2c(=O)n(C)c(=O)n3C)ccc1O` (configuration not stated), the GI50 in the assay with KM12, with HOP-62, with ACHN, in the assay on MOLT-4, with MDA-MB-231 and in the assay with RXF 393 was > 100 µM (inactive) throughout. Moreover, the GI50 in the assay with K562, in the assay with SK-MEL-2, in the assay on HT-29, in the assay with MCF7, in the assay with UACC-257 and with U-251 was > 100 µM (inactive) each time. Further, the GI50 with RPMI-8226, in the assay on NCI-H522, with SK-MEL-28, in the assay with CAKI-1 and in the assay with A549 was > 100 µM (inactive) throughout.
With `O=C(O)Cc1ccc(-n2nnc3c(=O)[nH][nH]c(=O)c32)cc1`, the GI50 in the assay on KM12, with HOP-62, with ACHN, in the assay with MOLT-4, with MDA-MB-231 and in the assay on K562 was > 100 µM (inactive) each time. Further, the GI50 in the assay with SK-MEL-2, in the assay on HT-29, with MCF7, with UACC-257, in the assay on U-251 and in the assay on RPMI-8226 was > 100 µM (inactive) in each case. The GI50 in the assay on MDA-N, with SK-MEL-28, in the assay on CAKI-1 and with A549 was > 100 µM (inactive) in each case.
Turning to `CN(C)c1nc2oc(-c3ccccc3)c(-c3ccccc3)c2c2nnnn12`, the GI50 in the assay on KM12, in the assay on ACHN, in the assay on MOLT-4, in the assay with MDA-MB-231, with RXF 393 and in the assay on K562 was > 100 µM (inactive) in each case. The GI50 in the assay with HT-29, with MCF7, with UACC-257, with U-251, in the assay with RPMI-8226 and in the assay on NCI-H522 was > 100 µM (inactive) in each case. In addition, the GI50 in the assay with SK-MEL-28, in the assay on CAKI-1 and in the assay on A549 was > 100 µM (inactive) in each case.
As to `Cc1ccc2nc(Cl)c(/C=N/N3C(=O)/C(=C/c4cccc([N+](=O)[O-])c4)N=C3c3ccccc3)cc2c1`, the GI50 in the assay on KM12 was 36.6 µM (inactive); in the assay with HOP-62 it was 50.2 µM (inactive); with ACHN, 49.1 µM (inactive); in the assay on MOLT-4, 29.2 µM (inactive); with MDA-MB-231, 93.1 µM (inactive); with K562, 47.6 µM (inactive). The GI50 with SK-MEL-2 was 22.2 µM (inactive); in the assay on HT-29 it was 45.3 µM (inactive); in the assay on MCF7, 20.3 µM (inactive); with UACC-257, 61.1 µM (inactive); with U-251 it was 89.7 µM (inactive); with RPMI-8226, 31.3 µM (inactive). The GI50 in the assay on MDA-N is 20.4 µM (inactive); in the assay on SK-MEL-28 it was > 100 µM (inactive); in the assay with CAKI-1, 66.4 µM (inactive); in the assay on A549, 60.1 µM (inactive).
As to `Cc1n[nH]c(C(F)(F)F)c1/N=N/N1CCOCC1`, the GI50 was 6.37 µM (inactive) in the assay with KM12; 8.77 µM (inactive) in the assay with HOP-62; 4.52 µM (inactive) in the assay on ACHN; 1.84 µM (inactive) in the assay on MOLT-4; 12.8 µM (inactive) in the assay on MDA-MB-231; 12.5 µM (inactive) with RXF 393. Also, the GI50 is 1.08 µM (active) with K562; 13.1 µM (inactive) in the assay with SK-MEL-2; 3.24 µM (inactive) with HT-29; 3.78 µM (inactive) in the assay with MCF7; 9.77 µM (inactive) with UACC-257; 12 µM (inactive) in the assay on U-251. Besides, the GI50 in the assay on RPMI-8226 was 0.873 µM (active); in the assay on NCI-H522, 3.94 µM (inactive); in the assay on SK-MEL-28 it was 14.7 µM (inactive); in the assay on CAKI-1 it was 1.9 µM (inactive); in the assay with A549, 8.89 µM (inactive).
Take `COc1cccc(N2N=C3c4ccccc4-n4c(nc5ccccc54)C3C2N)c1` (configuration not stated): the GI50 was > 100 µM (inactive) in the assay with KM12; > 100 µM (inactive) in the assay on HOP-62; > 100 µM (inactive) in the assay with ACHN; 92.3 µM (inactive) in the assay with MDA-MB-231; > 100 µM (inactive) in the assay on SK-MEL-2; > 100 µM (inactive) in the assay on HT-29. In addition, the GI50 is 79.6 µM (inactive) in the assay on MCF7; > 100 µM (inactive) in the assay with UACC-257; > 100 µM (inactive) in the assay on U-251; > 100 µM (inactive) in the assay with RPMI-8226; > 100 µM (inactive) in the assay on MDA-N; > 100 µM (inactive) in the assay on NCI-H522. In addition, the GI50 with SK-MEL-28, in the assay with CAKI-1 and in the assay on A549 was > 100 µM (inactive) in each case.
For the compound `COc1ccc(C2Oc3c(cccc3-c3c(-c4ccc(O)cc4)oc4cc(O)cc(O)c4c3=O)C(=O)C2O)cc1O` (configuration not stated), the GI50 with HOP-62, with ACHN, in the assay with MOLT-4, in the assay on MDA-MB-231, in the assay on K562 and in the assay with HT-29 was > 100 µM (inactive) throughout. In addition, the GI50 in the assay on MCF7 is > 100 µM (inactive); in the assay with UACC-257, > 100 µM (inactive); in the assay on U-251, > 100 µM (inactive); with RPMI-8226, 83.2 µM (inactive); in the assay on SK-MEL-28 it was > 100 µM (inactive); in the assay with A549, > 100 µM (inactive).
Consider `O=c1c2cc([N+](=O)[O-])ccc2[nH]n1Cc1ccccc1Cl`, for which the GI50 is 55.7 µM (inactive) with KM12; 38.1 µM (inactive) in the assay with HOP-62; 46.1 µM (inactive) with ACHN; 74 µM (inactive) in the assay on MOLT-4; 70.5 µM (inactive) with MDA-MB-231; 35.2 µM (inactive) with RXF 393. For the same compound, the GI50 was 48.8 µM (inactive) in the assay with K562; 54.8 µM (inactive) with HT-29; 98.6 µM (inactive) in the assay with UACC-257; 75.5 µM (inactive) in the assay with U-251; 30.1 µM (inactive) with RPMI-8226; > 100 µM (inactive) with MDA-N. For the same compound, the GI50 with NCI-H522 was 32.7 µM (inactive); with SK-MEL-28, 44.6 µM (inactive); in the assay with CAKI-1, > 100 µM (inactive); in the assay on A549, 42.1 µM (inactive).
As for `Cc1c(/C=N/NC(=S)Nc2ccc([N+](=O)[O-])cc2)c(=O)n(-c2ccccc2)n1C`, the GI50 with KM12 is 13.1 µM (inactive); in the assay with HOP-62 it was 11.6 µM (inactive); in the assay on ACHN, 11.5 µM (inactive); in the assay on MOLT-4 it was 9.48 µM (inactive); with MDA-MB-231, 20.7 µM (inactive); with RXF 393 it was 12.4 µM (inactive). Also, the GI50 in the assay on K562 was 47.1 µM (inactive); with SK-MEL-2 it was 15.5 µM (inactive); with HT-29, 12.9 µM (inactive); in the assay on MCF7 it was 20 µM (inactive); in the assay on UACC-257, 30.9 µM (inactive); in the assay with U-251, 15.6 µM (inactive). The GI50 was 48.5 µM (inactive) in the assay on RPMI-8226, > 100 µM (inactive) in the assay on SK-MEL-28 and 6.85 µM (inactive) in the assay with CAKI-1.
For the compound `CC1=C(C#N)C(=C(C#N)C#N)OC1(C)Cc1ccccc1` (configuration not stated), the GI50 was 55.5 µM (inactive) in the assay on KM12; 58.9 µM (inactive) in the assay with HOP-62; 18.5 µM (inactive) in the assay with ACHN; 34.3 µM (inactive) in the assay with MOLT-4; 47.9 µM (inactive) with MDA-MB-231; 17.6 µM (inactive) in the assay with RXF 393. For the same compound, the GI50 was 39.6 µM (inactive) in the assay on K562; 36.7 µM (inactive) in the assay on SK-MEL-2; 32.7 µM (inactive) with HT-29; 38.2 µM (inactive) in the assay with MCF7; 49.4 µM (inactive) in the assay with UACC-257; > 100 µM (inactive) with U-251. Moreover, the GI50 in the assay with RPMI-8226 is 42.7 µM (inactive); in the assay on NCI-H522, 14.4 µM (inactive); with SK-MEL-28, 49.9 µM (inactive); in the assay on CAKI-1, 24.7 µM (inactive); in the assay on A549 it was 56.8 µM (inactive).
Regarding `CCn1c(-c2ccccc2)nc2c1C(=O)c1ccccc1C2=O`, the GI50 with KM12 is 22.7 µM (inactive); with HOP-62, 42.5 µM (inactive); in the assay with MOLT-4, 14.7 µM (inactive); in the assay with RXF 393 it was 15.6 µM (inactive); with K562, 25.9 µM (inactive); in the assay with HT-29, 8.99 µM (inactive). Moreover, the GI50 in the assay with MCF7 was 25.5 µM (inactive); in the assay on UACC-257 it was 3.85 µM (inactive); with U-251, 29.9 µM (inactive); with RPMI-8226, 36.6 µM (inactive); in the assay on MDA-N it was 18.8 µM (inactive); in the assay on NCI-H522, 15.2 µM (inactive). In addition, the GI50 is 56 µM (inactive) in the assay with SK-MEL-28 and 28.4 µM (inactive) in the assay with A549.

These data come from ChEMBL document CHEMBL1201862, “PubChem BioAssay data set” (2004).
